{"source": "paper PMC5909423", "about": "“Antibiotic resistance ABCF proteins reset the peptidyl transferase centre of the ribosome to counter translational arrest” (Nucleic Acids Research, 2018)", "target": "T1, LsaA (Enterococcus faecalis, UniProt Q7WT47)", "T1 construct": "gene lsa", "T1 sequence (Q7WT47 entry or part of it)": "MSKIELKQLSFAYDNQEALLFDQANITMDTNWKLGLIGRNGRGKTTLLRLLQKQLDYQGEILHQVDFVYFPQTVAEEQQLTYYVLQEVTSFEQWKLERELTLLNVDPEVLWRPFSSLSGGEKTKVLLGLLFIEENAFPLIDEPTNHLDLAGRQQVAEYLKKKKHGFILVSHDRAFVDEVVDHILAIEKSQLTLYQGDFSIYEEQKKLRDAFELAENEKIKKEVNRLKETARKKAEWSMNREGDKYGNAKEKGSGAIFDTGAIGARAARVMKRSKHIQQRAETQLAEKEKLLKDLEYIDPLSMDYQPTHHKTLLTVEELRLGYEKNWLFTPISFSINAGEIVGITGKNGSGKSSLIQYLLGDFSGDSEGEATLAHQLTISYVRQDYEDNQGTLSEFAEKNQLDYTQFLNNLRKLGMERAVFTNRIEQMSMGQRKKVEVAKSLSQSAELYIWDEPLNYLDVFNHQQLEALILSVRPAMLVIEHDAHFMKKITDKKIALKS", "conditions": "1 uM LsaA, 1 mM ATP, 1 uM lincomycin; indirect read-out", "data": [{"smiles": "Nc1ncnc2c1ncn2[C@@H]1O[C@H](COP(=O)(O)OP(=O)(O)OP(=O)(O)O)[C@@H](O)[C@H]1O", "note": "[ATP]", "values": [{"measurement": "ATP-dependent rescue of puromycin reaction of lincomycin-inhibited E. faecalis 7", "result": "in the absence of ATP LsaA has no effect"}]}]}
